# From patent US4714765A, “Rhodanine derivatives and process for preparing the same” (Taiho Pharmaceutical Company, Limited, priority 1985, dated 1987)
# Biological target: T1, Rat Lens Aldose Reductase (Rattus norvegicus, UniProt P07943)
# T1 construct: The lenses were then homogenized in cold distilled water; from tissue; host or cells: lens of Sprague-Dawley rats, supernatant of homogenate (10,000 rpm, 10 min)
# Experiment: Aldose reductase inhibitory activity (Rat Lens Aldose Reductase)
# Type: biochemical, rat (Sprague-Dawley)
# Details: rat lens homogenate supernatant; glyceraldehyde as substrate; decrease in NADPH at 340 nm; read-out: IC50 (concentration of the test compound at which 50% inhibition of aldose reductase is achieved)
# Method: Aldose reductase inhibitory activity
# Rat Lens Aldose Reductase:
# This test was conducted according to the method described in J. Biol. Chem., 240, 877 (1965).
# Sprague-Dawley rats weighing 100 to 150 g were suffocated with carbon dioxide and the lenses were carefully removed. The lenses were then homogenized in cold distilled water (0.4 ml/lens) and the homogenate was centrifuged at 10,000 rpm for 10 min. The enzyme, i.e. aldose reductase was spectrophotometrically measured by following the decrease in NADPH at 340 nm with glyceraldehyde as substrate. An IC50 i.e., a concentration of the test compound at which 50% inhibition of aldose reductase is achieved was calculated from estimated dose-response curves.
row,IC50,SMILES
1,4000 nM,"Cc1cc(C=CC=C2SC(=S)NC2=O)on1 [Compound 1a, 5-[3-(3-methyl-5-isoxazolyl)-1,3-propanediene]rhodanine]"
2,130 nM,Cc1cc(C=CC=C2SC(=S)N(CC(=O)O)C2=O)on1 [Compound 1b]
3,640 nM,"Cc1cc(CC2SC(=S)N(CC(=O)O)C2=O)on1 (stereo not drawn) [Compound 1g, 5-(3-methyl-5-isoxazolylmethyl)rhodanine-3-acetic acid]"
